For 6 compounds, EC50 results are on record in publication PMC6315173, “Characterization of the Apelin/Elabela Receptors (APLNR) in Chickens, Turtles, and Zebrafish: Identification of a Novel Apelin-Specific Receptor in Teleosts” (Frontiers in Endocrinology, 2018).

As usually defined, the EC50 is the concentration that produces a half-maximal response.

Test [1] concerns the target T1, zebrafish APLNR2a (zfAPLNR2a) (Danio rerio, UniProt Q7SZP9).
T1 construct: the open reading frame (ORF) of each APLNR was amplified from the animal; expressed in transfected cells; host or cells: HEK293
T1 sequence (Q7SZP9 1-362): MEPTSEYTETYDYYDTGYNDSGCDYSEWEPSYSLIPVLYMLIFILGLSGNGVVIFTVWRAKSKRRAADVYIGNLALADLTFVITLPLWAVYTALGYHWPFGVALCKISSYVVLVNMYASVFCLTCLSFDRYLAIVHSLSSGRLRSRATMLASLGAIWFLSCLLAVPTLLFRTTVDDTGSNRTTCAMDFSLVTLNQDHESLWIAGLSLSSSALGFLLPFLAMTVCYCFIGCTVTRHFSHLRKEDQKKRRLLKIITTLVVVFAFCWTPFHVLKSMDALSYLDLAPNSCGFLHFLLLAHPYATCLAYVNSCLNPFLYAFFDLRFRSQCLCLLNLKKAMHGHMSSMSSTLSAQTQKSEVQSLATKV
Briefly: pGL3-CRE-luciferase reporter assay, HEK293 cells expressing zebrafish APLNR2a. It counts as cell-based. How it is done:
(§1) In brief, HEK293 cells were cultured on a six-well plate and grown for 24 h before transfection. The cells were then transfected with a mixture containing 700 ng pGL3-CRE-Luciferase reporter construct (or pGL4-SRE-Luciferase reporter construct), 200 ng of receptor expression plasmid [or empty pcDNA3.1(+) vector as a negative control], and 2 μl jetPRIME (Polyplus Transfection, Illkirch, France) in 200 μl buffer. Twenty-four hour later, HEK293 cells were sub-cultured into a 96-well plate at 37°C for an additional 24 h before treatment. After removal of medium from the 96-well plate, the cells were treated with 100 μl peptide-containing medium (or peptide-free medium) for 6 h in the presence or absence of forskolin (5 μM). Finally, HEK293 cells were lysed with 1 × passive lysis buffer for luciferase assay (Promega, Madison, WI, USA) and the luciferase activity of the cell lysate was measured by a Multimode microplate Reader (TriStar LB 941, EG&G Berthold, Germany) according to the manufacturer's instruction.
(§2) The luciferase activity in each treatment group was expressed as the relative fold changes as compared with their respective control groups. The data were analyzed by non-linear regression followed by one-way ANOVA using GraphPad Prism 5 (GraphPad, San Diego, CA, USA). To validate the results, all experiments were repeated at least twice.
(In general: Reporter assays use an easily measured gene product as a stand-in for the process of interest.)

The target of test [2] is T2, zebrafish APLNR2b (zfAPLNR2b) (Danio rerio, UniProt A0T2N3).
T2 construct: the open reading frame (ORF) of each APLNR was amplified from the animal; expressed in transfected cells; host or cells: HEK293
T2 sequence (A0T2N3 1-359): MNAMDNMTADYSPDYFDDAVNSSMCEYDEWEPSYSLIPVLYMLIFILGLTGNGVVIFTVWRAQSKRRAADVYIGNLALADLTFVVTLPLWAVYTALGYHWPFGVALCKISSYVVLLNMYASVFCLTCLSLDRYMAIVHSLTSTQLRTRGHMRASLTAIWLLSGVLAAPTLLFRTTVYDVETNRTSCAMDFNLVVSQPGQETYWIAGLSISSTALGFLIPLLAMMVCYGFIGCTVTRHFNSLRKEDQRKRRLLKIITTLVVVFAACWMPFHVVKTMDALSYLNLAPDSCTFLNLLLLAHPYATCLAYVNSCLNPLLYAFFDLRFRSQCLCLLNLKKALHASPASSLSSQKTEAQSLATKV
Briefly: pGL3-CRE-luciferase reporter assay, HEK293 cells expressing zebrafish APLNR2b. It counts as cell-based. As for the experimental part: as §1, §2

Test [3] concerns the target T3, human APLNR (hAPLNR1) (Homo sapiens, UniProt P35414).
T3 construct: human APLNR ORF was also amplified by PCR and cloned into pcDNA3.1 (+) expression vector; expressed in transfected cells; host or cells: HEK293
T3 sequence (P35414 1-380): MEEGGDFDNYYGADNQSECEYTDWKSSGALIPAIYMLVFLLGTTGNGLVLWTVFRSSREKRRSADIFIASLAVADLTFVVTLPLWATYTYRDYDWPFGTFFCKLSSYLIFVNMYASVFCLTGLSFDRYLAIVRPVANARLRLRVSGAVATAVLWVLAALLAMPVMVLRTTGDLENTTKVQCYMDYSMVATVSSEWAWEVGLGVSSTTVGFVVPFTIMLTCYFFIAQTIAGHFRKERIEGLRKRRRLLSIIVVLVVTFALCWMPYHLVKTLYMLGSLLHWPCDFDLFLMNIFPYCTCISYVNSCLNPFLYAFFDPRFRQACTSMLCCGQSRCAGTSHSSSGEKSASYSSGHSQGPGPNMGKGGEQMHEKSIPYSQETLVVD
Briefly: pGL3-CRE-luciferase reporter assay, HEK293 cells expressing human APLNR. It counts as cell-based. As to conditions: SEM; read-out: EC50 (nM) hAPLNR. As for the experimental part:
In brief, HEK293 cells were cultured on a six-well plate and grown for 24 h before transfection. The cells were then transfected with a mixture containing 700 ng pGL3-CRE-Luciferase reporter construct (or pGL4-SRE-Luciferase reporter construct), 200 ng of receptor expression plasmid [or empty pcDNA3.1(+) vector as a negative control], and 2 μl jetPRIME (Polyplus Transfection, Illkirch, France) in 200 μl buffer. Twenty-four hour later, HEK293 cells were sub-cultured into a 96-well plate at 37°C for an additional 24 h before treatment. After removal of medium from the 96-well plate, the cells were treated with 100 μl peptide-containing medium (or peptide-free medium) for 6 h in the presence or absence of forskolin (5 μM). […] The luciferase activity in each treatment group was expressed as the relative fold changes as compared with their respective control groups. The data were analyzed by non-linear regression followed by one-way ANOVA using GraphPad Prism 5 (GraphPad, San Diego, CA, USA). To validate the results, all experiments were repeated at least twice.

The subject of test [4] is zebrafish APLNR3a (zfAPLNR3a). Briefly: pGL3-CRE-luciferase reporter assay, HEK293 cells expressing zebrafish APLNR3a. It counts as cell-based, zebrafish (Danio rerio). The settings on record: HEK293 cells transiently expressing zfAPLNR3a; inhibition of forskolin (5 μM)-stimulated pGL3-CRE-luciferase activity; 6 h; mean ± S.E. of 3 independent experiments; N = EC50 cannot be evaluated. How it is done:
as §1, §2

In test [5] the test system is tilapia APLNR3b (tiAPLNR3b). In words: pGL3-CRE-luciferase reporter assay, HEK293 cells expressing tilapia APLNR3b. In kind it is cell-based, Nile tilapia (Oreochromis niloticus). As to conditions: HEK293 cells transiently expressing tiAPLNR3b; inhibition of forskolin (5 μM)-stimulated pGL3-CRE-luciferase activity; 6 h; mean ± S.E. of 3 independent experiments; N = EC50 cannot be evaluated. As for the experimental part: as §1, §2

Read-outs that look alike come from different tables or passages of the source. Positions of bridges follow the written chain, without caps; N, C: chain ends. Residues, ends and D or L forms follow the SMILES beside them. No end group written: not given here.

Consider `CSCC[C@H](NC(=O)[C@@H](N)CS)C(=O)N1CCC[C@H]1C(=O)N[C@@H](CC(C)C)C(=O)N[C@@H](Cc1cnc[nH]1)C(=O)N[C@@H](CO)C(=O)N[C@@H](CCCNC(=N)N)C(=O)N[C@H](C(=O)N1CCC[C@H]1C(=O)N[C@@H](Cc1ccccc1)C(=O)N1CCC[C@H]1C(=O)O)C(C)C` [cELA-11], for which the EC50 in test [1] and in test [2] was more than 100 nM in each case.

Turning to `CSCC[C@H](NC(=O)[C@H](CS)NC(=O)[C@H](CCCNC(=N)N)NC(=O)[C@H](CCCNC(=N)N)NC(=O)[C@H](Cc1c[nH]cn1)NC(=O)[C@H](CO)NC(=O)[C@H](CS)NC(=O)[C@H](CC(N)=O)NC(=O)[C@H](Cc1c[nH]cn1)NC(=O)[C@H](CCCNC(=N)N)NC(=O)[C@H](Cc1c[nH]cn1)NC(=O)[C@H](CC(C)C)NC(=O)[C@H](CCCCN)NC(=O)[C@H](CCCNC(=N)N)NC(=O)[C@H](CCCNC(=N)N)NC(=O)[C@H](CC(C)C)NC(=O)[C@H](C)NC(=O)[C@H](CC(C)C)NC(=O)[C@H](CC(N)=O)NC(=O)[C@H](C)NC(=O)[C@@H]1CCCN1C(=O)[C@H](CCCNC(=N)N)NC(=O)[C@@H](N)CCC(N)=O)C(=O)N1CCC[C@H]1C(=O)N[C@@H](CC(C)C)C(=O)N[C@@H](Cc1c[nH]cn1)C(=O)N[C@@H](CO)C(=O)N[C@@H](CCCNC(=N)N)C(=O)N[C@H](C(=O)N1CCC[C@H]1C(=O)N[C@@H](Cc1ccccc1)C(=O)N1CCC[C@H]1C(=O)O)C(C)C` [cELA-32b] (H-QRPANLALRRKLHRHNCSHRRCMPLHSRVPFP-OH), the EC50 is 0.28 ± 0.05 nM in test [3], 1.68 ± 0.58 nM in test [1] (SEM) and 1.02 ± 0.23 nM in test [2] (SEM).

As to `CSCC[C@H](NC(=O)[C@@H]1CCCN1C(=O)CNC(=O)[C@H](CCCCN)NC(=O)[C@H](Cc1c[nH]cn1)NC(=O)[C@H](CO)NC(=O)[C@H](CC(C)C)NC(=O)[C@H](CCCNC(=N)N)NC(=O)[C@@H]1CCCN1C(=O)[C@H](CCCNC(=N)N)NC(=O)[C@@H]1CCCN1)C(=O)N1CCC[C@H]1C(=O)N[C@@H](Cc1ccccc1)C(=O)O` [cApelin-13], the figures for the EC50 in test [3], in test [1] (SEM) and in test [2] (SEM) were 0.55 ± 0.21 nM, 2.82 ± 1.18 nM and 12.7 ± 5.21 nM, respectively.

With `CC(C)C[C@H](NC(=O)[C@@H]1CCCN1C(=O)[C@H](CC(C)C)NC(=O)[C@H](CS)NC(=O)[C@H](CCCNC(=N)N)NC(=O)[C@H](CCCCN)NC(=O)[C@H](CCCCN)NC(=O)[C@@H]1CCCN1C(=O)[C@H](CS)NC(=O)[C@H](CC(N)=O)NC(=O)[C@H](Cc1c[nH]cn1)NC(=O)[C@H](CCCNC(=N)N)NC(=O)[C@H](CCCNC(=N)N)NC(=O)[C@H](Cc1ccc(O)cc1)NC(=O)[C@@H](N)CCCCN)C(=O)N[C@@H](Cc1c[nH]cn1)C(=O)N[C@@H](CO)C(=O)N[C@@H](CCCNC(=N)N)C(=O)N[C@H](C(=O)N1CCC[C@H]1C(=O)N[C@@H](Cc1ccccc1)C(=O)N1CCC[C@H]1C(=O)O)C(C)C` [zfELA-22] (H-KYRRHNCPKKRCLPLHSRVPFP-OH; N-terminus and C-terminus assumed), the EC50 in test [1] (SEM) is 1.43 ± 0.57 nM; in test [2] (SEM) it was 1.78 ± 1.17 nM; in test [4], more than 100 nM; in test [5], more than 100 nM.

On to `CSCC[C@H](NC(=O)[C@@H]1CSSC[C@H](NC(=O)[C@H](CC(N)=O)NC(=O)[C@H](Cc2c[nH]cn2)NC(=O)[C@H](CCCNC(=N)N)NC(=O)[C@H](Cc2c[nH]cn2)NC(=O)[C@H](CC(C)C)NC(=O)[C@H](CCCCN)NC(=O)[C@H](CCCNC(=N)N)NC(=O)[C@H](CCCNC(=N)N)NC(=O)[C@H](CC(C)C)NC(=O)[C@H](C)NC(=O)[C@H](CC(C)C)NC(=O)[C@H](CC(N)=O)NC(=O)[C@H](C)NC(=O)[C@@H]2CCCN2C(=O)[C@H](CCCNC(=N)N)NC(=O)[C@@H](N)CCC(N)=O)C(=O)N[C@@H](CO)C(=O)N[C@@H](Cc2c[nH]cn2)C(=O)N[C@@H](CCCNC(=N)N)C(=O)N[C@@H](CCCNC(=N)N)C(=O)N1)C(=O)N1CCC[C@H]1C(=O)N[C@@H](CC(C)C)C(=O)N[C@@H](Cc1c[nH]cn1)C(=O)N[C@@H](CO)C(=O)N[C@@H](CCCNC(=N)N)C(=O)N[C@H](C(=O)N1CCC[C@H]1C(=O)N[C@@H](Cc1ccccc1)C(=O)N1CCC[C@H]1C(=O)O)C(C)C` [cELA-32a] (H-QRPANLALRRKLHRHNCSHRRCMPLHSRVPFP-OH; disulfide 17-22), for which the EC50 in test [3] came out at 0.26 ± 0.07 nM; in test [1] (SEM), 1.81 ± 0.74 nM; in test [2] (SEM), 2.55 ± 0.11 nM.

Consider “LVRPRGARRGNVRRPGGWRRLRRPRPRLSHKGPMPF [cApelin-36]”, for which the values for the EC50 in test [3], in test [1] (SEM) and in test [2] (SEM) were 0.16 ± 0.06 nM, 2.96 ± 1.26 nM and 0.9 ± 0.33 nM, respectively.
